Test results as given in ChEMBL document CHEMBL1141583, “Chemotherapeutic bone-targeted bisphosphonate prodrugs with hydrolytic mode of activation” (Bioorg Med Chem Lett, 2008).

Key:
Jurkat = experiment: Growth inhibition of human Jurkat cells after 96 hrs; type: functional, cell-based
[1] = Chemical stability in phosphate buffer saline at pH 7.4; type: physicochemical

| half-life [1] [h] | SMILES | IC50 (Jurkat) [nM] |
| --- | --- | --- |
| – | CC[C@@]1(OC(=O)CCC(P(=O)(O)O)P(=O)(O)O)C(=O)OCc2c1cc1n(c2=O)Cc2cc3ccccc3nc2-1 [CAMDRONATE] | 21 |
| 90 | COc1cc(COC(=O)NC(Cc2c[nH]c3ccccc23)C(=O)O)cc(OC)c1OC(=O)OCCCCCCC(P(=O)(O)O)P(=O)(O)O (stereo not drawn) [TRYPDRONATE] | – |
| – | CC[C@@]1(O)C(=O)OCc2c1cc1n(c2=O)Cc2cc3ccccc3nc2-1 [CAMPTOTHECIN] | 1.4 |
